Measurements as given in ChEMBL document CHEMBL4725298, “Exploration of piperazine-derived thioureas as antibacterial and anti-inflammatory agents. In vitro evaluation against clinical isolates of colistin-resistant Acinetobacter baumannii” (Bioorg Med Chem Lett, 2020).
Converted amounts (≈) assume the structure as drawn. The source made the active and inactive calls. The calls are words filed in the database; no cut-off is given here.

Columns and labels:
[1] = tested on: Acinetobacter baumannii; experiment: Antibacterial activity against colistin-resistant Acinetobacter baumannii 11 assessed as reduction in bacterial growth incubated for 24 hrs by standard broth microdilution method; assay type: functional
[2] = tested on: Acinetobacter baumannii; experiment: Antibacterial activity against colistin-resistant Acinetobacter baumannii 14 assessed as reduction in bacterial growth incubated for 24 hrs by standard broth microdilution method; assay type: functional
[3] = tested on: Acinetobacter baumannii; experiment: Antibacterial activity against colistin-resistant Acinetobacter baumannii 17 assessed as reduction in bacterial growth incubated for 24 hrs by standard broth microdilution method; assay type: functional
[4] = tested on: Acinetobacter baumannii; experiment: Antibacterial activity against colistin-resistant Acinetobacter baumannii 21R assessed as reduction in bacterial growth incubated for 24 hrs by standard broth microdilution method; assay type: functional
[5] = tested on: Acinetobacter baumannii; experiment: Antibacterial activity against colistin-resistant Acinetobacter baumannii 22P assessed as reduction in bacterial growth incubated for 24 hrs by standard broth microdilution method; assay type: functional
[6] = tested on: Acinetobacter baumannii; experiment: Antibacterial activity against colistin-resistant Acinetobacter baumannii 24 assessed as reduction in bacterial growth incubated for 24 hrs by standard broth microdilution method; assay type: functional
[7] = tested on: RAW264.7; experiment: Antiinflammatory activity against mouse RAW264.7 cells assessed as reduction in LPS-induced NO production at 50 uM incubated for 24 hrs by Griess assay; assay type: functional, cell-based
[8] = tested on: Acinetobacter baumannii; experiment: Antibacterial activity against Acinetobacter baumannii 22P assessed as reduction in bacterial growth in presence of colistin incubated for 24 hrs by standard broth microdilution method; assay type: functional
[9] = Cytotoxicity against human A549 cells; assay type: cell-based
[10] = tested on: Acinetobacter baumannii; experiment: Bactericidal activity against colistin-resistant Acinetobacter baumannii 21R at 4 times of MIC incubated for 4 hrs by time kill curve based analysis; assay type: functional, organism-based
[11] = tested on: Acinetobacter baumannii; experiment: Bactericidal activity against colistin-resistant Acinetobacter baumannii 21R assessed as log10 reduction of bacterial colony forming unit at 2 times of MIC incubated for 4 hrs by time kill curve based analysis; assay type: functional
[12] = tested on: Acinetobacter baumannii; experiment: Bactericidal activity against colistin-resistant Acinetobacter baumannii 22P at 12.5 to 50 uM incubated upto 24 hrs by time kill curve based analysis; assay type: functional, organism-based; conditions: dose microM 12.5-50, time hrs <=24
[13] = tested on: Acinetobacter baumannii; experiment: Synergistic antibacterial activity against Acinetobacter baumannii 22P assessed as fractional inhibitory concentration index incubated for 24 hrs in presence of colistin by standard broth microdilution method; assay type: functional
[14] = tested on: Acinetobacter baumannii; experiment: Synergistic antibacterial activity against Acinetobacter baumannii 21R assessed as fractional inhibitory concentration index incubated for 24 hrs in presence of colistin by standard broth microdilution method; assay type: functional
[15] = tested on: Acinetobacter baumannii; experiment: Antibacterial activity against Acinetobacter baumannii 22P assessed as fractional inhibitory concentration incubated for 24 hrs by standard broth microdilution method relative to control; assay type: functional
[16] = tested on: Acinetobacter baumannii; experiment: Antibacterial activity against Acinetobacter baumannii 21R assessed as fractional inhibitory concentration incubated for 24 hrs by standard broth microdilution method relative to control; assay type: functional
[17] = tested on: Acinetobacter baumannii; experiment: Antibacterial activity against Acinetobacter baumannii 21R assessed as reduction in bacterial growth in presence of colistin incubated for 24 hrs by standard broth microdilution method; assay type: functional
[18] = tested on: Acinetobacter baumannii; experiment: Potentiation of colistin-induced antibacterial activity against Acinetobacter baumannii 21R assessed as fold reduction in colistin MIC incubated for 24 hrs by standard broth microdilution method; assay type: functional
[19] = tested on: Acinetobacter baumannii; experiment: Potentiation of colistin-induced antibacterial activity against Acinetobacter baumannii 22P assessed as fold reduction in colistin MIC incubated for 24 hrs by standard broth microdilution method; assay type: functional
[20] = tested on: RAW264.7; experiment: Antiinflammatory activity against mouse RAW264.7 cells assessed as reduction in LPS-induced NO production at 1 to 10 uM incubated for 24 hrs by Griess assay relative to control; assay type: functional; conditions: dose microM 1-10
[21] = tested on: RAW264.7; experiment: Cytotoxicity against mouse RAW264.7 cells assessed as reduction in cell viability at 1 to 10 uM incubated for 24 hrs; assay type: cell-based; conditions: raw264.7, 24 h, dose 1-10 µM

Compound	inhibition [7]	MIC [2]	MIC [4]	MIC [5]	CC50 [9]	MIC [6]	inhibition (INH) [20]	also measured
CC1CN(C(=O)CC2CCCCC2)CCN1C(=S)Nc1ccc(C#N)cc1 (stereo not drawn)	Active							Activity [1]: inactive; Activity [2]: inactive; Activity [3]: inactive; Activity [4]: inactive; Activity [5]: inactive; Activity [6]: inactive
O=C(Cc1ccccc1)N1CCN(C(=S)Nc2cc(C(F)(F)F)cc(C(F)(F)F)c2)C(c2ccccc2)C1 (stereo not drawn)	Active							MIC [3]: 3.12 µM (≈ 1.72 µg/mL)
CC(C)(C)OC(=O)N1CCN(C(=S)Nc2cc(C(F)(F)F)cc(C(F)(F)F)c2)CC1	Active	6.25 µM (≈ 2.86 µg/mL)	6.25 µM (≈ 2.86 µg/mL)	12.5 µM (≈ 5.72 µg/mL)	109 µM			MIC [8]: 1.56 µM; MIC [1]: 12.5 µM (≈ 5.72 µg/mL); MIC [3]: 6.25 µM (≈ 2.86 µg/mL); Activity [10]: Active; Activity [11]: 3 log10CFU/ml; Activity [12]: inactive; fractional inhibitory concentration index (FICI) [13]: 0.37; fractional inhibitory concentration index (FICI) [14]: 0.5; FIC [15]: 0.12; FIC [16]: 0.12; MIC [17]: 0.78 µM; fold change (FC) [18]: 4; fold change (FC) [19]: 4
CC1CN(C(=O)Cc2ccccc2)CCN1C(=S)Nc1ccc(Cl)cc1 (stereo not drawn)	Active							Activity [1]: inactive; Activity [2]: inactive; Activity [3]: inactive; Activity [4]: inactive; Activity [5]: inactive; Activity [6]: inactive
CC(C)(C)CC(=O)N1CCN(C(=S)Nc2cc(C(F)(F)F)cc(C(F)(F)F)c2)C(c2ccccc2)C1 (stereo not drawn)	Active		3.12 µM (≈ 1.66 µg/mL)	3.12 µM (≈ 1.66 µg/mL)		3.12 µM (≈ 1.66 µg/mL)	>=80%	MIC [1]: 3.12 µM (≈ 1.66 µg/mL)
CC1CN(C(=O)Cc2ccccc2)CCN1C(=S)Nc1ccc(C(F)(F)F)cc1 (stereo not drawn)	Active							Activity [1]: inactive; Activity [2]: inactive; Activity [3]: inactive; Activity [4]: inactive; Activity [5]: inactive; Activity [6]: inactive
CC1CN(C(=O)CC2CCCCC2)CCN1C(=S)Nc1ccc(Cl)cc1 (stereo not drawn)		50 µM (≈ 19.7 µg/mL)	12.5 µM (≈ 4.92 µg/mL)	12.5 µM (≈ 4.92 µg/mL)	200 µM	25 µM (≈ 9.85 µg/mL)		
CC1CN(C(=O)CC(C)(C)C)CCN1C(=S)Nc1cc(C(F)(F)F)cc(C(F)(F)F)c1 (racemic)	Active	50 µM (≈ 23.5 µg/mL)	6.25 µM (≈ 2.93 µg/mL)	6.25 µM (≈ 2.93 µg/mL)	73.2 µM	6.25 µM (≈ 2.93 µg/mL)	40%	
CC1CN(C(=O)CC2CCCCC2)CCN1C(=S)Nc1ccc([N+](=O)[O-])cc1 (stereo not drawn)	Active		25 µM (≈ 10.1 µg/mL)	12.5 µM (≈ 5.06 µg/mL)				Activity [1]: inactive; Activity [2]: inactive; Activity [3]: inactive; Activity [6]: inactive
CC1CN(C(=O)CC2CCCCC2)CCN1C(=S)Nc1cc(C(F)(F)F)cc(C(F)(F)F)c1 (stereo not drawn)	Active	50 µM (≈ 24.8 µg/mL)	3.12 µM (≈ 1.55 µg/mL)	1.56 µM (≈ 0.773 µg/mL)	82 µM	25 µM (≈ 12.4 µg/mL)	40%	
CC1CN(C(=O)CC2CCCCC2)CCN1C(=S)Nc1ccc(C(F)(F)F)cc1 (stereo not drawn)		12.5 µM (≈ 5.34 µg/mL)	25 µM (≈ 10.7 µg/mL)	6.25 µM (≈ 2.67 µg/mL)		3.12 µM (≈ 1.33 µg/mL)		
CC1CN(C(=O)Cc2ccccc2)CCN1C(=S)Nc1cc(C(F)(F)F)cc(C(F)(F)F)c1 (stereo not drawn)	Active	3.12 µM (≈ 1.53 µg/mL)	3.12 µM (≈ 1.53 µg/mL)		130 µM	6.25 µM (≈ 3.06 µg/mL)		MIC [1]: 6.25 µM (≈ 3.06 µg/mL); MIC [3]: 3.12 µM (≈ 1.53 µg/mL)
CC1CN(C(=O)OC(C)(C)C)CCN1C(=S)Nc1cc(C(F)(F)F)cc(C(F)(F)F)c1 (stereo not drawn)	Active	3.12 µM (≈ 1.47 µg/mL)			112 µM		40%	
CC(C)(C)OC(=O)N1CCN(C(=S)Nc2cc(C(F)(F)F)cc(C(F)(F)F)c2)C(c2ccccc2)C1 (stereo not drawn)	Active	12.5 µM (≈ 6.67 µg/mL)			127 µM		>=80%	MIC [3]: 6.25 µM (≈ 3.33 µg/mL); Activity [21]: Toxic
COLISTIN		56 µM	1770 µM	3540 µM		7 µM		MIC [1]: 14 µM; MIC [3]: > 111 µM; FIC [15]: 0.25; FIC [16]: 0.38
C[C@@H]1CN(C(=O)CC(C)(C)C)CCN1C(=S)Nc1cc(C(F)(F)F)cc(C(F)(F)F)c1			6.25 µM (≈ 2.93 µg/mL)	12.5 µM (≈ 5.87 µg/mL)	162 µM	6.25 µM (≈ 2.93 µg/mL)		
C[C@H]1CN(C(=O)CC(C)(C)C)CCN1C(=S)Nc1cc(C(F)(F)F)cc(C(F)(F)F)c1			6.25 µM (≈ 2.93 µg/mL)	6.25 µM (≈ 2.93 µg/mL)	73.5 µM	12.5 µM (≈ 5.87 µg/mL)		
O=C(CC1CCCCC1)N1CCN(C(=S)Nc2cc(C(F)(F)F)cc(C(F)(F)F)c2)C(c2ccccc2)C1 (stereo not drawn)	Active		3.12 µM (≈ 1.74 µg/mL)	6.25 µM (≈ 3.49 µg/mL)	125 µM	3.12 µM (≈ 1.74 µg/mL)	>=80%	MIC [1]: 3.12 µM (≈ 1.74 µg/mL); Activity [21]: Toxic
